One data set concerns Fusarium graminearum. Type of data set: cell-based. As to conditions: 50 μM; for % Inhibition of DON/AcDON at 50 μM: 7 days at 28° C.

Where two headings read alike, the source gives them in different places. Marks after values point to notes of the source that are not given here.

As for `CC(C)n1cc(-c2ccnc(N)c2)c(-c2ccc(Cl)s2)n1` [Example 306], the log p (pH 2.7) is 1.78^[b]. Moreover, in the data set with Fusarium graminearum, the “% Inhibition of fungal growth at 50 μM” value came to 87% and the “% Inhibition of DON/AcDON at 50 μM” value stood at 100%.
As for `N#CCCn1cc(-c2ccncc2)c(-c2ccc(Cl)s2)n1` [Example 322], the log p (pH 2.7) is 0.98^[b]. Moreover, in the data set on Fusarium graminearum, the “% Inhibition of fungal growth at 50 μM” value is 0% and the “% Inhibition of DON/AcDON at 50 μM” value stood at 99%.
Turning to `CCOCCn1cc(-c2ccncc2)c(-c2ccc(Br)s2)n1` [Example 349], where the note is “pH 2.7”, the log p is 1.75^[b]. In the data set on Fusarium graminearum, the “% Inhibition of fungal growth at 50 μM” value is 95% and the “% Inhibition of DON/AcDON at 50 μM” value is reported as 99%.
For the compound `O=C1OCCC1n1cc(-c2ccncc2)c(-c2cc3ccsc3s2)n1` (centres unmarked) [Example 372], the log p (pH 2.7) was 1.49^[b]. In the data set on Fusarium graminearum, the “% Inhibition of fungal growth at 50 μM” value came to 1% and the “% Inhibition of DON/AcDON at 50 μM” value is recorded as 98%.
For the compound `CSc1ccc(-c2nn(C(C)C)cc2-c2ccncc2)s1` [Example 294], the log p (pH 2.7) was 1.79^[b]. Moreover, in the data set on Fusarium graminearum, the “% Inhibition of fungal growth at 50 μM” value is listed as 92% and the “% Inhibition of DON/AcDON at 50 μM” value is given as 99%.
Consider `N#CCCn1cc(-c2ccncc2)c(-c2cc3ccsc3s2)n1` [Example 338], for which, where the note is “pH 2.7”, the log p was 1.07^[b]. Also, in the data set with Fusarium graminearum, the “% Inhibition of fungal growth at 50 μM” value was 50% and the “% Inhibition of DON/AcDON at 50 μM” value amounted to 99%.
On to `CC1(Cn2cc(-c3ccncc3)c(-c3ccc(Cl)s3)n2)CC1(Cl)Cl` (centres unmarked) [Example 324], for which, for the setting “pH 2.7”, the log p was 2.71^[b]. Also, in the data set on Fusarium graminearum, the “% Inhibition of fungal growth at 50 μM” value worked out at 0% and the “% Inhibition of DON/AcDON at 50 μM” value is 93%.
Regarding `CCC(C)Nc1nccc(-c2cn(C(C)CC)nc2-c2ccc(Cl)s2)n1` (centres unmarked) [Example 197], where the note is “pH 2.3”, the log p is 3.48^[a]. In addition, in the data set with Fusarium graminearum, the “% Inhibition of fungal growth at 50 μM” value is listed as 73% and the “% Inhibition of DON/AcDON at 50 μM” value is 90%.
Regarding `Brc1ccc(-c2nn(C3CCCC3)cc2-c2ccncc2)s1` [Example 356], the log p (pH 2.7) is 2.37^[b]. Further, in the data set on Fusarium graminearum, the “% Inhibition of fungal growth at 50 μM” value is 75% and the “% Inhibition of DON/AcDON at 50 μM” value is 97%.
With `CC(=O)Nc1cc(-c2cn(C(C)C)nc2-c2ccc(Cl)s2)ccn1` [N-{4-[(3/5)-(5-Chloro-2-thienyl)-1-isopropyl-1H-pyrazol-4-yl]pyridin-2-yl}acetamide], under “pH 2.7”, the “logP (pH2.7)” value was determined as 2.45 and the “logP (pH2.7), minor isomer” value is reported as 2.22.
On to `Cn1cc(-c2ccnc(NC(=O)C(C)(C)C)c2)c(-c2ccc(Cl)s2)n1` [Example 283], for which, where the note is “pH 2.7”, the log p is 2.92^[b].
Regarding `N#Cc1[nH]nc(-c2ccc(Cl)s2)c1-c1ccncc1` [Example 85], the log p (pH 2.7) was 1.53^[b].
As to `CC(C)Cn1ncc(-c2cc[n+]([O-])c(NCc3ccccc3)c2)c1-c1ccc(Cl)s1` [2-Benzylamino-4-[1-isobutyl-5-(5-chloro-2-thienyl)-1H-pyrazol-4-yl]pyridine N oxide], the “logP (pH2.7)” value (pH 2.7) is listed as 3.48.
Take `COc1nccc(-c2c[nH]nc2-c2ccc(Cl)s2)n1` [Example 69]: the log p (pH 2.3) is 2.23^[a].
Turning to `CCC(C)n1ncc(-c2ccncn2)c1-c1ccc(Cl)s1` (centres unmarked) [Example 31], the log p (pH 2.7) was 3.34^[b].
For the compound `CCC(C)n1cc(-c2cc[n+]([O-])cc2)c(-c2ccc(Cl)s2)n1` (centres unmarked) [4-[1-sec-butyl-3-(5-chloro-2-thienyl)-1H-pyrazol-4-yl]pyridine N oxide], the “logP (pH2.7)” value (pH 2.7) stood at 2.5.
`Clc1ccc(-c2c(-c3ccncc3)cnn2C2CCCC2)s1` [Example 16]: for the setting “pH 2.7”, the log p is 2.13^[b].
The same measure, in the same setting: the figure for `N#CCn1cc(-c2ccncc2)c(-c2cc3ccsc3s2)n1` [Example 336] is 1.48^[b]; for `CC(C)=CCn1cc(-c2ccncc2)c(-c2ccc(F)s2)n1` [Example 343] it is 1.45^[b].
For `CC(C)Nc1nccc(-c2cn(CCc3ccccc3)nc2-c2ccc(Cl)s2)n1` [Example 153], the log p (pH 2.7) was 3.63^[b].
The same measure, in the same setting: as for `C#CCNc1cc(-c2cn(CC(C)C)nc2-c2ccc(Cl)s2)ccn1` [Example 112], the figure is 2.30^[b]; as for `FC=Cn1cc(-c2ccnc(N=C(c3ccccc3)c3ccccc3)c2)c(-c2ccc(Cl)s2)n1` [Example 302], 4.67^[b].
On the same count and under the same terms, the figure for `CC(C)=CCn1cc(-c2ccncc2)c(-c2cc3ccsc3s2)n1` [Example 331] is 1.69^[b]; for `Clc1ccc(-c2nn(-c3ccccc3)cc2-c2ccncc2)s1` [Example 22] it is 2.63^[b].
With `CCC(C)n1ncc(-c2ccnc(SC)n2)c1-c1ccc(Cl)s1` (centres unmarked) [Example 209], the log p (pH 2.3) is 4.76^[a].
Regarding `CC(C)n1cc(-c2ccncc2)c(-c2ccc(C(F)(F)F)s2)n1` [4-[1-isopropyl-(3/5)-(5-trifluoromethyl-2-thienyl)-1H-pyrazol-4-yl]pyridine], for the setting “pH 2.7”, the “logP (pH2.7)” value is on record as 2.20 and the “logP (pH2.7), minor isomer” value amounted to 2.08.
As for `CC(C)n1cc(-c2ccnc(NC=O)n2)c(-c2ccc(Cl)s2)n1` [Example 144], the log p (pH 2.3) was 3.81^[a].
In the case of `CCC(C)n1cc(-c2ccnc(NCc3ccccc3)n2)c(-c2ccc(Cl)s2)n1` (centres unmarked) [Example 200], the log p (pH 2.3) was 4.27^[a].
On the same count and under the same terms, the figure for `CCC(C)n1cc(-c2ccnc(SC)n2)c(-c2ccc(Cl)s2)n1` (centres unmarked) [Example 221] is 4.88^[a]; for `CC(C)n1cc(-c2ccnc(S(C)(=O)=O)n2)c(-c2ccc(Cl)s2)n1` [Example 203] it is 3.15^[a]; for `CC(C)Cn1cc(-c2cc[n+]([O-])c(NCc3ccccc3)c2)c(-c2ccc(Cl)s2)n1` [Example 73] it is 3.73^[a].
Consider `N#CCCn1cc(-c2ccncc2)c(-c2cc(Cl)cs2)n1` [Example 126], for which the log p (pH 2.7) was 1.16^[b].
With `CC(C)n1cc(-c2ccncc2)c(-c2ccc(Br)s2)n1` [4-[1-Isopropyl-(3/5)-(5-bromo-2-thienyl)-1H-pyrazol-4-yl]pyridine], under “pH 2.7”, the “logP (pH2.7)” value is given as 1.88 and the “logP (pH2.7), minor isomer” value is 1.76.
For `CC(C)Cn1cc(-c2ccncc2)c(-c2cc3sccc3s2)n1` [4-[1-isobutyl-(3/5)-(3-thieno[3,2-b]thiophen-2-yl)-1H-pyrazol-4-yl]pyridine], where the note is “pH 2.7”, the “logP (pH2.7)” value is given as 2.07 and the “logP (pH2.7), minor isomer” value is 2.02.
Consider `CC(C)n1cc(-c2ccnc(N=C(c3ccccc3)c3ccccc3)c2)c(-c2ccc(Cl)s2)n1` [Example 310], for which, under “pH 2.7”, the log p was 4.46^[b].
As to `N#CCCn1cc(-c2ccncc2)c(-c2sccc2Cl)n1` [Example 143], the log p (pH 2.7) was 0.86^[b].
For `CC(C)Cn1ncc(-c2ccnc(NCc3ccccc3)n2)c1-c1ccc(Cl)s1` [Example 96], the log p (pH 2.3) is 3.96^[a].
With `N#Cc1ccccc1Cn1cc(-c2ccncc2)c(-c2ccc(Br)s2)n1` [Example 352], the log p (pH 2.7) is 2.13^[b].
Same read-out and setting: the figure for `CC(C)Cn1cc(-c2ccncc2)c(-c2sccc2Cl)n1` [Example 159] is 1.62^[b]; for `CCn1cc(-c2ccnc(NC(=O)OC(C)C)c2)c(-c2ccc(Cl)s2)n1` [Example 268] it is 3.35^[b].
Consider `CC(C)n1cc(-c2ccnc(NCc3ccccc3)n2)c(-c2ccc(Cl)s2)n1` [Example 198], for which the log p (pH 2.3) is 3.81^[a].
Consider `Cc1[nH]nc(-c2ccc(Cl)s2)c1-c1ccncc1` [Example 68], for which the log p (pH 2.7) was 1.07^[b].
Consider `CC(C)n1cc(-c2ccncc2)c(-c2cc(Cl)cs2)n1` [Example 114], for which, for the setting “pH 2.7”, the log p was 1.6^[b] and the “logP value of the minor isomer (in parenthesis in column Isomer ratio [d])” value is on record as “(1.74)”.
Regarding `CCC(CC)n1cc(-c2ccncc2)c(-c2sccc2Cl)n1` [Example 130], for the setting “pH 2.7”, the log p was 1.78^[b] and the “logP value of the minor isomer” value is listed as “(1.88)”.
On the same counts, the results for `CC(C)Nc1nccc(-c2cn(C)nc2-c2ccc(Cl)s2)n1` [Example 139] are 2.07^[b] and “(1.93)”.
For the compound `CC(C)n1ncc(-c2ccncc2)c1-c1ccc(I)s1` [Example 215], the log p (pH 2.7) is 1.78^[b].
Regarding `C#CCn1cc(-c2ccnc(NC(C)C)n2)c(-c2ccc(Cl)s2)n1` [Example 117], under “pH 2.7”, the log p was 2.52^[b] and the “logP value of the minor isomer (in parenthesis in column Isomer ratio [d])” value is listed as “(3.13)”.
Take `C#CCNc1cc(-c2cnn(CC(C)C)c2-c2ccc(Cl)s2)cc[n+]1[O-]` [2-Propargylamino-4-[1-isobutyl-5-(5-chloro-2-thienyl)-1H-pyrazol-4-yl]pyridine-N-oxyde]: the “logP (pH2.7)” value (pH 2.7) amounted to 2.92.
Consider `Cc1c(-c2ccncc2)c(-c2ccc(Cl)s2)nn1C` [Example 147], for which the log p reads like this: (pH 2.7) 1.29^[b]; (pH 7.8) 2.62^[c];.
Turning to `CC(C)=CCn1cc(-c2ccncc2)c(-c2sccc2Cl)n1` [Example 133], the log p (pH 2.7) is 1.74^[b].
For `COCn1cc(-c2ccncc2)c(-c2sccc2Cl)n1` [Example 129], where the note is “pH 2.7”, the log p is 0.95^[b].
For `Clc1ccc(-c2nn(Cc3ccccc3)cc2-c2ccncc2)s1` [Example 43], for the setting “pH 2.3”, the log p was 2.35^[a].
Regarding `Cn1cc(-c2ccnc(N=C(c3ccccc3)c3ccccc3)c2)c(-c2ccc(Cl)s2)n1` [Example 309], under “pH 2.7”, the log p is 4.67^[b].
`CCCNc1nccc(-c2c[nH]nc2-c2ccc(Cl)s2)n1` [Example 65]: the log p (pH 2.3) is 1.75^[a].
`CC(C)Cn1cc(-c2ccncc2)c(-c2cc(Cl)cs2)n1` [Example 152]: the log p (pH 2.7) was 1.87^[b].
Turning to `COCCn1cc(-c2ccncc2)c(-c2ccc(Cl)s2)n1` [Example 49], where the note is “pH 2.7”, the log p was 1.42^[b] and the “logP value of the minor isomer (in parenthesis in column Isomer ratio [d])” value is on record as “(1.29)”.
Consider `COc1ccc(Cn2nc(-c3ccc(Cl)s3)c(-c3ccncc3)c2SC)cc1` [Example 103], for which the log p (pH 2.7) is 3.78^[b].
With `CC(C)=CCn1cc(-c2ccnc(NC(C)C)n2)c(-c2ccc(Cl)s2)n1` [Example 118], for the setting “pH 2.7”, the log p was 3.44^[b] and the “logP value of the minor isomer (in parenthesis in column Isomer ratio [d])” value is reported as “(3.00)”.
Regarding `CC#Cc1c(-c2ccncc2)c(-c2ccc(Cl)s2)nn1Cc1ccc(OC)cc1` [4-[(3/5)-(5-chloro-2-thienyl)-1-(4-methoxybenzyl)-5-(prop-1-yn-1-yl)-1H-pyrazol-4-yl]pyridine], where the note is “pH 2.7”, the “logP (pH2.7)” value was 3.11 and the “logP (pH2.7), minor isomer” value amounted to 2.61.

Source of the values: patent US8685974B2 (Bayer CropScience AG, priority 2009, dated 2014).
